Key:
atherosclerosis = settings: immunization with peptide or peptide combination; WO 02/080954 Table B; cited from earlier work
Male apoE (−/−) mice = assay: p210 immunization, aortic atherosclerosis (en face Oil Red O; aortic sinus immunohistochemistry); type: in vivo
Source text: Selection of peptides and their preparation for immunization The establishment and screening of human apoB-100 peptides has been reported (8). Based on Applicants pilot experiments and prior reports, see references (9),(10) Applicants selected peptide 210 (p210, KTTKQ SFDLS VKAQY KKNKH—SEQ ID NO: 210) as a candidate immunogen. Native p210 peptide (Euro-Diagnostica AB, Sweden) was conjugated to cationic bovine serum albumin (cBSA) as carrier using a method described previously see references (3), (4) Alum was used as adjuvant and mixed with peptide/cBSA conjugate with 1:1 ratio in volume. Peptide conjugation and mixing with alum were prepared fresh prior to each immunization.
Male apoE (−/−) mice (Jackson Laboratories) were housed in an animal facility accredited by the American Association of Accreditation of Laboratory Animal Care and kept on a 12-hour day/night cycle with unrestricted access to water and food. The Institutional Animal Care and Use Committee of Cedars-Sinai Medical Center approved the experimental protocols. […] Mice, maintained on normal chow diet, received subcutaneous primary immunization in the dorsal area between scapulas at 6-7 weeks of age, followed by a booster at 9 and 12 weeks of age. One week after last booster, diet was switched to high cholesterol chow (TD 88137, Harlan-Teklad) and continued until euthanasia at the age of 25 weeks. Separate groups of mice receiving PBS or cBSA/alum at the same immunization time-points served as control. Some mice were sacrificed at 8 or 13 weeks of age to assess immune response against p210.
At euthanasia the hearts were harvested and embedded in OCT compound (Tissue-Tek) for cryo-section. Whole aortas were cleaned, processed and stained with Oil Red 0 to assess the extent of atherosclerosis en face with computer-assisted histomorphometry, see references (3),(4).
The sections from aortic sinus were stained with MOMA-2 (Serotec), or CD11c (eBioscience) antibody to identify macrophages or dendritic cells immunohistochemically using standard protocol. Oil-Red-O stain for plaque size was done using standard protocol. […]

Male apoE KO mice [1] = assay: Blood pressure and heart rate in AngII-infused immunized mice; type: in vivo
Procedure: Saline was delivered to the control group.
Angiotensin II infusion via implanted osmotic pump was started at 10 weeks of age. Mice were euthanized at 14 weeks of age. Blood pressure was measured throughout the duration of experiment.

CD11c(+) dendritic cells = assay: Flow cytometric analysis of dendritic cells at immunization site and lymph nodes; type: in vivo, mice; settings: 1 week after the third immunization; compared with cBSA/alum group
Procedure: (§1) Flow cytometric analysis was performed using standard protocols with antibodies listed in Table 1 below and a FACScan (Becton Dickinson) or a CyAn ADP analyzer (Beckman Coulter). For intracellular cytokine staining, Brefeldin A (3 μg/ml) was added to the cultured cells for 2 hours before cells subject to staining procedure. Cell membranes were permeabilized for staining intracellular molecules.
Since DCs are the major cell type upstream to both cellular and humoral immune responses, Applicants determined if these cells were affected by the immunization strategy. […]

[2] = tested on: naïve male apoE (−/−) recipient mice; assay: Adoptive transfer of lymphocytes from immunized donors, aortic atherosclerosis in recipients; type: in vivo; settings: 2×10^7 donor B-cells/mouse
Source text: Male apoE (−/−) mice on regular chow received subcutaneous immunization as described in previous paragraph and were sacrificed at 13 weeks of age as donors. Splenocytes from the same treatment group were pooled before cell isolation. Donor CD8(+) T-cells, CD4(+)CD25(+) T-cells or B-cells were isolated using Dynabeads FlowComp (Invitrogen) according to the manufacturer's protocols. CD4(+) T-cells were negatively selected from the splenocytes followed by positive selection of CD4(+)CD25(+) cells. B cells were negatively isolated whereas CD8(+) T-cells were positively isolated first and released from beads. The purity of pooled CD8(+) T-cells, CD4(+)CD25(+) T-cells and B-cells was 90%, 80% and 70%, respectively. The isolated CD8(+) T-cells (1×10^6 cells/mouse), CD4(+)CD25(+) T-cells (1×10^5 or 3×10^5 cells/mouse) or B-cells (2×10^7 cells/mouse) were then adoptively transferred to naïve male apoE (−/−) recipient mice at 6-7 weeks of age via tail vein injection. In the published literatures of vascular biology, the number of adoptively transferred lymphocytes varied greatly. For B-cells transfer, the number of 2×10^7 cells/mouse was chosen based on two prior reports, see references (11),(12). For CD4(+)CD25(+) T-cells transfer, the number of cells transferred ranged from 5×10^4 cells/mouse to 1×10^6 cells/mouse in the published literature see references (13),(14),(15). […]

bone marrow derived DCs = assay: Cytolytic activity of CD8(+) T-cells from immunized mice against dendritic cells in vitro; type: cell-based
Procedure: (§2) The method for generating BMDC with GM-CSF was adapted from previous publication with modification see reference (19). Briefly, bone marrow cells from femurs and tibiae of male apoE−/− mice were plated into 10 cm culture plates (Falcon) with 20 ml complete RPMI-1640 containing 10 ng/ml GM-CSF (R&D Systems) and 10 ng/ml IL-4 (Invitrogen). Cells were washed and fed on day 3 and day 5 by removing the old medium followed by replenishing with fresh culture medium with GM-CSF and IL-4. On day 8, the immature DC appeared as non-adherent cells under the microscope and harvested by vigorous pipetting and subcultured into new culture plates with 2×10^5 DCs in 1.5 ml medium.
CD8(+) T-cells were negatively isolated using a CD8 selection Dynabeads kit (Invitrogen) per manufacturer's protocol. […] After co-culture for 4 hours, cells were collected and processed for flow cytometric determination of CD11c and 7-AAD by LSR II flow cytometer (BD Biosciences) and data was analyzed with Summit V4.3 software. Dendritic cell death without CD8(+) T-cells in the co-culture was used as baseline and percentage of specific lysis of cells was calculated using a method described previously, see reference (20). […]
Applicants therefore assessed the effect of the vaccine on cytotoxic activity of CD8^+ T cells against syngeneic bone marrow-derived DCs. […]

Granzyme B = Granzyme B level in CD8(+) T-cells from immunized mice; type: cell-based; settings: compared to PBS or cBSA/alum group
Procedure: as §1

Perforin = Perforin level in CD8(+) T-cells from immunized mice; type: cell-based; settings: compared to PBS or cBSA/alum group
Procedure: as §1

KLH = KLH immunization after p210 immunization, KLH IgG titer; type: in vivo, Male C57/BL6 mice; settings: prior p210 immunization vs PBS or cBSA/alum; 100 μg KLH s.c. at 13 and 15 weeks
Source text: (§3) The coating concentration was optimized in pilot experiments.

TNP = assay: TNP-LPS immunization after p210 immunization, TNP IgG titer; type: in vivo, Male C57/BL6 mice; settings: prior p210 immunization vs PBS or cBSA/alum; 100 μg TNP-LPS i.p.
Source text: as §3

[3] = tested on: IFN-γ expression of dendritic cells (DCs); assay: Flow cytometric analysis of intracellular IFN-γ expression of dendritic cells (AngII model); type: in vivo, mice; settings: ± SEM of CD11c-gated cells
AT1 receptor (AT1R) = assay: Aortic AT1 receptor expression by Western blot (AngII model); type: in vivo, mice; settings: ± SEM; N = 6
superoxide = assay: Aortic superoxide production by in situ dihydroethidine method (AngII model); type: in vivo, mice; settings: ± SEM; N = 9
BMDCs = assay: Endocytosis of FITC-labeled p210 by DCs in vitro; type: cell-based, mice; settings: p210 labeled with FITC; FITC fluorescence in BMDCs
Procedure: as §2
Peptide loading on BMDCs was defined using p210 labeled with FITC (FITC conjugating kit from Pierce).

CD8^+ CD25^− T cells = assay: Presentation of p210 by DCs to CD8+ CD25− T cells in vitro; type: cell-based, mice; settings: 48 hours; DCs loaded with p210 and treated with LPS; compared to untreated or LPS only
Source text: The p210 peptide contains the proteoglycan binding site of the apoB-100 molecule. This peptide is a cell-penetrating peptide capable of efficiently delivering antigens for cross-presentation to cytotoxic CD8^+ T cells.^53 Applicants therefore assessed activation of CD8^+ CD25^− T cells co-cultured with DCs loaded with p210 and matured with LPS.

Male apoE KO mice [4] = assay: AngII-induced aortic aneurysm formation, rupture and survival after immunization
Procedure: Fourteen P210, 17 cBSA, 16 PBS, and 8 Saline injected mice were examined.
AngII (1000 ng/Kg/min) was delivered by a subcutaneous osmotic pump implanted at 10 weeks of age for 4 weeks to cause aneurysms in all three groups. Saline was delivered to the control group. Mice were sacrificed at 14 weeks of age of age. The mice were fed normal chow for the duration of experiment.
42 P210, 46 cBSA, 37 PBS, and 8 Saline injected mice were examined.
AngII (1000 ng/Kg/min) was delivered by a subcutaneous osmotic pump implanted at 10 weeks of age for 4 weeks to cause aneurysms in all three groups. Saline was delivered to the control group. Mice were sacrificed at 14 weeks of age of age. The male apoE KO mice were fed normal chow for the duration of experiment.
AngII (1000 ng/Kg/min) was delivered by a subcutaneous osmotic pump implanted at 10 weeks of age for 4 weeks to cause aneurysms in all three groups. Saline was delivered to the control group. Mice were sacrificed at 14 weeks of age of age. 42 P210, 46 cBSA, 37 PBS, and 8 Saline injected mice were examined. Mice were sacrificed at 14 weeks of age. The male apoE KO mice were fed normal chow for the duration of experiment.
At 10 weeks of age, mice were subcutaneously implanted with an osmotic pump which released AngII (1 mg/Kg/min), and were euthanized 4 weeks later.

[5] = 100 μg s.c., three immunizations, high cholesterol chow, euthanasia at 25 weeks
[6] = AngII pump 4 weeks, total 14 p210, 17 cBSA

In the case of “EEEML ENVSL VCPKD ATRFK (EEEMLENVSLVCPKDATRFK) [p1]”, the “percentage reduction (atherosclerosis)” value (atherosclerosis) is listed as 31%.

In the case of “HTFLI YITEL LKKLQ STTVM (HTFLIYITELLKKLQSTTVM) [p301]”, the “percentage reduction (atherosclerosis)” value (atherosclerosis) is listed as 55.2%.

In the case of “IEIGL EGKGF EPTLE ALFGK (IEIGLEGKGFEPTLEALFGK) [p45]”, the “percentage reduction (atherosclerosis)” value (atherosclerosis) is listed as 47.4%.

In the case of “KTTKQ SFDLS VKAQY KKNKH (KTTKQSFDLSVKAQYKKNKH) [p210]”, the “reduction of aortic atherosclerosis compared to PBS group” value (Male apoE (−/−) mice; [5]) is reported as 57%, the “reduction of aortic atherosclerosis compared to cBSA/Alum group” value (Male apoE (−/−) mice; [5]) is reported as 50% and the “athero-reduction, dose comparison” value (Male apoE (−/−) mice; pilot experiment, 100 μg dose compared to 25 or 50 μg dose) is reported as “optimum athero-reduction”. The “reduction in blood pressure” value (Male apoE KO mice [1]; 4 weeks after pump implantation (FIG. 11)) was about 11%, the “change in heart rate” value (Male apoE KO mice [1]; 4 weeks after pump implantation (FIG. 12A)) was about 7% and the “Mean Arterial Blood Pressure (BP)” value (Male apoE KO mice [1]; ± SEM at 13 weeks of age, p210 N = 9, cBSA N = 7) was 124 ± 4 mmHg. For the same substance, the “CD11c(+)CD86(+) cells in lymph nodes” value (CD11c(+) dendritic cells) was “reduced CD11c(+)CD86(+) cells in lymph nodes”, the “atherosclerosis in recipients of B cells” value [2] was “did not affect atherosclerosis” and the “percent lysis relative to basal lysis, Normal medium” value (bone marrow derived DCs; CD8:DC 3:1, 4 hours, 10% FBS, CD11c-gated cells, N = 11) was “significantly increased the percentage of DC death”. For the same substance, the “cytolytic activity of CD8+ T cells after depletion of CD25+ cells” value (bone marrow derived DCs; FIG. 15, panel B) was “abrogated the increased cytolytic activity”, the “Granzyme B level in CD8(+) T-cells” value (Granzyme B) was “higher level of Granzyme B” and the “perforin level in CD8(+) T-cells” value (Perforin) was “no difference in perforin level”. For the same substance, the KLH-IgG titer (KLH) was “no difference”, the TNP-IgG titer (TNP) was “no difference” and the “LN CD11c+CD86+IFN-γ+ DCs” value ([3]; N = 6) was 26.7 ± 1.6 percentage. For the same substance, the “Spleen CD11c+CD86+IFN-γ+ DCs” value ([3]; N = 8) was 19.5 ± 1.6 percentage, the “Aortic AT1R” value (AT1 receptor (AT1R)) was 1.0 ± 0.2 arbitrary densitometric unit and the Aortic superoxide production (superoxide) was 1.1 ± 0.1 arbitrary fluorescent intensity unit. For the same substance, the “uptake of FITC-labeled p210 by dendritic cells” value (BMDCs) was “uptake of p210 by dendritic cells”, the “CD8+ CD25+ T cells after co-culture with p210-loaded DCs” value (CD8^+ CD25^− T cells) was “significantly increased CD8^+ CD25^+ T cells” and the “percentage reduction (atherosclerosis)” value (atherosclerosis) was 57.9%. The “Aneurysmal segment/total segment (%)” value (Male apoE KO mice [4]; 8 aortic segments, AngII pump) was 14.3%, the “Survival at 28 days” value (Male apoE KO mice [4]; 28 days after osmotic pump implantation for Ang II infusion, 42 P210, 46 cBSA mice) was 90.5% and the Aneurysm incidence (Male apoE KO mice [4]; Ang II pump, 42 P210, 46 cBSA mice) was 54.8%. For the same substance, the “Aneurysm (include Rupture) (number of mice)” value (Male apoE KO mice [4]; [6]) was 8, the “Rupture (number of mice)” value (Male apoE KO mice [4]; [6]) was 1 and the “Rupture incidence (%, total)” value (Male apoE KO mice [4]; [6]) was 7.1%. For the same substance, the “alive (number of mice)” value (Male apoE KO mice [4]; [6]) was 13.

Source: US20130302362A1, “Immunomodulatory Compositions, Methods and Systems Comprising Immunogenic Fragments of ApoB-100” (CEDARS-SINAI MEDICAL CENTER, priority 2010, published 2013)
